# Laboratory results reported in patent US6825191B2, “Benzodiazepine derivatives” (Ajinomoto Co., Inc., priority 2000, dated 2004).
# Structures can show the parent of a compound that is named as a salt.
# Key:
# [1] = target: T1, activated human blood coagulation factor X (Homo sapiens, UniProt P00742); assay: Determination of activity of inhibiting the activated blood-coagulation factor X (chromogenic substrate, initial rate); format: biochemical; settings: negative logarithm of concentration inhibiting 50% of initial rate, tris hydrochloride buffer pH 8.4, room temperature; for IC50: read-out: Activity of inhibiting activated blood coagulation factor X (pIC50) (converted)
# T1 construct: purchased Enzyme Research Co
# T1 sequence (P00742 235-488 limits assumed): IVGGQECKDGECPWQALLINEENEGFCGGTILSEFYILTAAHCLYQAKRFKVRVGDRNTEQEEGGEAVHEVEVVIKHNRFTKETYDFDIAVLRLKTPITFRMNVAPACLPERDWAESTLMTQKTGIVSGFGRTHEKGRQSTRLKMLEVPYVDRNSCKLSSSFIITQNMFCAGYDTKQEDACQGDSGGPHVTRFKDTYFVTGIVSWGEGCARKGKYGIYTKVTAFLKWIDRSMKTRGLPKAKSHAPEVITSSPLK
# T1 sequence (P00742 41-179 partner limits assumed): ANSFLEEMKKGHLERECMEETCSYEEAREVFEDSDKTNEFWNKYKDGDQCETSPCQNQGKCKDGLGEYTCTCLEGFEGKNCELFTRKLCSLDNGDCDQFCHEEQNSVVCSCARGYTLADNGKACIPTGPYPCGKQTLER
# Experimental: Determination of Activity of inhibiting the Activated Blood-coagulation Factor X
# 130 μl of 100 mM tris hydrochloride buffer adjusted to pH 8.4 was added to 10 μl of an aqueous solution of a compound to be tested. Then 10 μl of a 0.5 unit/ml solution of activated human blood coagulation factor X (a product of Enzyme Research Co.) in tris hydrochloride buffer of pH 8.4 was added to the resultant mixture. After the incubation at room temperature for 10 minutes, 50 μl of a solution of N-benzoyl-L-isoleucyl-L-glutamyl-glycyl-L-arginyl-P-nitroanilide hydrochloride (a product of Peptide Institute Inc.) adjusted to 0.8 mM with tris hydrochloride (pH 8.4) was added thereto. The a absorbance was determined and then the initial reaction rate was determined. A control was prepared in the same manner as that described above except that the solution of the compound to be tested was replaced with 10 μl of tris hydrochloride buffer adjusted to pH 8.4. The absorbance was determined with MICROPLATE READER Model 3550-UV (a product of BIO RAD) at a wave length of 405 nm at intervals of 15 seconds for 16 minutes.
# blood plasma = assay: Determination of blood anticoagulating activity by prothrombin time (PT) determination method; format: biochemical, human; settings: negative logarithm of concentration which elongated PT of the control to twice as long; blood plasma of healthy people
# Experimental: Determination of Blood Anticoagulating Activity
# The blood anticoagulating activity was determined by a prothrombin time (PT) determination method. The PT was determined as follows: The blood was taken from healthy people. 3.8% aqueous trisodium citrate solution was added to the blood in a volume ratio of 1:10. The blood plasma was separated by the centrifugation. 5 μl of DMSO solution containing a test compound was added to 45 μl of the blood plasma. After the incubation apt room temperature for 2 minutes, a test tube containing the blood plasma solution was placed in Sysmex CA-3000 fully automatic blood coagulation determination device (a product of Toa Medical Electronics Co., Ltd), and incubated at 37° C. for 3 minutes. 100 μl of Sysmex PT II (rabbit brain tissue thromboplastin, 13.2 mM calcium chloride; a product of Toa Medical Electronics Co., Ltd) was fed into the test tube. PT was automatically determined with the device. A sample containing 5 μl of DMSO in place of the solution of the test compound was used as the control. The negative logarithm (pPT2) of the concentration of the test compound which elongated PT of the control to the twice as long was determined, and employed as the index of the blood anticoagulating activity.
# human thrombin = target: T2, human thrombin (Homo sapiens, UniProt P00734); assay: Determination of thrombin-inhibiting activity (chromogenic substrate S-2238, initial rate); format: biochemical; settings: negative logarithm of concentration inhibiting 50% of initial rate, tris hydrochloride buffer pH 8.4, room temperature; for IC50: read-out: Thrombin-inhibiting activity (pIC50) (converted)
# T2 construct: solution of human thrombin (a product of SIGMA Co.); purchased SIGMA Co
# Experimental: Determination of Thrombin-inhibiting Activity
# 130 μL of 100 mM tris hydrochloride buffer adjusted to pH 8.4 was added to 10 μl of an aqueous solution of a test compound. Then 10 μl of a solution of human thrombin (a product of SIGMA Co.) adjusted to 2 units/ml with tris hydrochloride buffer of pH 8.4 was added to the resultant mixture. After the incubation at room temperature for 10 minutes, 50 μl of a solution of D-phenylalanine-L-pipecolyl-L-arginine-P-nitroanilide dihydrochloride (S-2238; a product of Daiichi Kagaku Yakuhin Co.) adjusted to 0.4 mM with tris hydrochloride buffer of pH 8.4 was added thereto. The absorbance was determined and then the initial reaction rate was determined. A control was prepared in the same manner as that described above except that the solution of the compound to be tested was replaced with 10 μl of tris hydrochloride buffer adjusted to pH 8.4. The absorbance was determined with MICROPLATE READER Model 3550-UV (a product of BIO RAD) at a wave length of 405 nm at intervals of 15 seconds for 16 minutes. The negative logarithm (pIC50) of a concentration of the test compound which inhibits 50% of the activity (initial rate) of the thrombin in the absence of the test compound was determined, and employed as the index of the activity of inhibiting thrombin.
Molecule,Activity of inhibiting activated blood coagulation factor X (pIC50) [1],Human blood anticoagulating activity (pPT2) (blood plasma),Thrombin-inhibiting activity (pIC50) (human thrombin),IC50 [1] [nM],IC50 (human thrombin) [nM]
"4-(4-chlorobenzoyl)-1-[4-(1-acetoimidoyl)-4-piperidyloxy]benzyl]-1,3,4,5-tetrahydrobenzo[e][1,4]diazepin-2-on trifluoroacetate [Compd. of Ex. 27]",6.4,4.8,<4.0,–,–
"O=C(O)C(F)(F)F.O=C(c1ccc(Cl)cc1)N1CC(=O)N(CC2CCN(c3ccncc3)CC2)c2ccccc2C1 [Compd. of Ex. 2, 4-(4-chlorobenzoyl)-1-[1-(4-pyridyl)-4-piperidylmethyl]-1,3,4,5-tetrahydrobenzo[e][1,4]diazepin-2-on trifluoroacetate]",–,4.9,–,398,> 100000
"O=C(O)C(F)(F)F.O=C(c1ccc(Br)cc1)N1CC(=O)N(CC2CCN(c3ccncc3)CC2)c2ccccc2C1 [Compd. of Ex. 9, 4-(4-bromobenzoyl)-1-[1-(4-pyridyl)-4-piperidylmethyl]-1,3,4,5-tetrahydrobenzo[e][1,4]diazepin-2-on trifluoroacetate]",–,4.9,–,501,> 100000
"O=C(c1ccc(Cl)s1)N1CC(=O)N(CC2CCN(c3ccncc3)CC2)c2ccccc2C1 [Compd. of Ex. 24, 4-(5-chlorothiophene-2-carbonyl)-1-[1-(4-pyridyl)-4-piperidylmethyl]-1,3,4,5-tetrahydrobenzo[e][1,4]diazepin-2-on trifluoroacetate]",–,–,–,794,> 100000
"O=C(O)C(F)(F)F.O=C(c1ccc(Br)s1)N1CC(=O)N(CC2CCN(c3ccncc3)CC2)c2ccccc2C1 [Compd. of Ex. 25, 4-(5-bromothiophene-2-carbonyl)-1-[1-(4-pyridyl)-4-piperidylmethyl]-1,3,4,5-tetrahydrobenzo[e][1,4]diazepin-2-on trifluoroacetate]",–,4.9,–,398,> 100000
"CC(=N)N1CCC(Oc2ccc(CN3C(=O)CN(C(=O)c4ccc(Cl)cc4)Cc4c(Cl)cccc43)cc2)CC1.O=C(O)C(F)(F)F [Compd. of Ex. 39, 6-chloro-4-(4-chlorobenzoyl)-1-[4-(1-(1-acetimidoyl)-4-piperidyloxy)benzyl]-1,3,4,5-tetrahydrobenzo[e][1,4]diazepin-2-on trifluoroacetate]",6.7,4.8,<4.0,–,–
"CC(=N)N1CCC(Oc2ccc(CN3C(=O)CN(C(=O)c4ccc(Cl)cc4)Cc4ccc(C(=O)O)cc43)cc2)CC1.O=C(O)C(F)(F)F [Compd. of Ex. 43, 4-(4-chlorobenzoyl)-2-oxo-1-[4-(1-(1-acetimidoyl)-4-piperidyloxy)benzyl]-2,3,4,5-tetrahydro-1H-benzo[e][1,4]-diazepine-8-carboxylic acid trifluoroacetate]",6.9,5.2,<4.0,–,–
"O=C(c1ccc(CN2C(=O)CN(C(=O)c3ccc(Cl)cc3)Cc3ccccc32)cc1)N1CC=CC1 [Compd. of Ex. 49, 1-[4-(2,5-dihydro-1H-pyrrol-1-ylcarbonyl)benzyl]-4-(4-chlorobenzoyl)-1,3,4,5-tetrahydrobenzo[e][1,4]-diazepin-2-on]",–,5.0,–,31.6,50100
"O=C(O)CCc1ccc2c(c1)N(Cc1ccc(C(=O)N3CC=CC3)cc1)C(=O)CN(C(=O)c1ccc(Cl)cc1)C2 [Compd. of Ex. 65, 3-[4-(4-chlorobenzoyl)-2-oxo-1-[4-(2,5-dihydro-1H-pyrrol-1-ylcarbonyl)benzyl]-2,3,4,5-tetrahydro-1H-benzo[e][1,4]-diazepin-8-yl]propionic acid]",–,4.7,–,39.8,–
"O=C(CCc1ccc2c(c1)N(Cc1ccc(C(=O)N3CC=CC3)cc1)C(=O)CN(C(=O)c1ccc(Cl)cc1)C2)N1CCOCC1 [Compd. of Ex. 68, 4-(4-chlorobenzoyl)-8-(3-morpholine-4-yl-3-oxopropyl)-1-[4-(2,5-dihydro-1H-pyrrol-1-ylcarbonyl)benzyl]-1,3,4,5-tetrahydrobenzo[e][1,4]diazepin-2-on]",–,5.2,–,39.8,63100
"O=C(c1ccc(CN2C(=O)CN(C(=O)c3ccc(Cl)cc3)Cc3ccc(CCP(=O)(O)O)cc32)cc1)N1CCCC1 [Compd. of Ex. 71-1, [2-(4-(4-chlorobenzoyl)-2-oxo-1-(4-(1-pyrrolidinecarbonyl)benzyl)-2,3,4,5-tetrahydro-1H-benzo[e][1,4]-diazepin-8-yl)ethyl]phosphonic acid]",–,5.0,–,25.1,31600
"O=C(c1ccc(CN2C(=O)CN(C(=O)c3ccc(Cl)cc3)Cc3ccc(CCP(=O)(O)O)cc32)cc1)N1CC=CC1 [Compd. of Ex. 73, [2-(4-(4-chlorobenzoyl)-2-oxo-1-[4-(2,5-dihydro-1H-pyrrol-1-ylcarbonyl)benzyl]-2,3,4,5-tetrahydro-1H-benzo[e][1,4]-diazepin-8-yl)ethyl]phosphonic acid]",–,4.9,–,7.94,39800
O=C(c1ccc(CN2C(=O)CN(C(=O)c3ccc(Cl)cc3)Cc3ccc(CCCO)cc32)cc1)N1CC=CC1 [Compd. of Ex. 90],–,5.0,–,39.8,79400
"O=C(O)C(F)(F)F.O=C(c1ccc(CN2C(=O)CN(C(=O)c3ccc(Cl)cc3)Cc3ccc(CCCN4CCCCC4)cc32)cc1)N1CC=CC1 [Compd. of Ex. 93, 8-(3-piperidin-1-yl-propyl)-1-[4-(2,5-dihydro-1H-pyrrol-1-ylcarbonyl)benzyl]-4-(4-chlorobenzoyl)-1,3,4,5-tetrahydro-benzo[e][1,4]diazepin-2-on trifluoroacetate]",–,5.5,–,79.4,63100
"N=C(c1ccc(CN2C(=O)CN(C(=O)c3ccc(Cl)cc3)Cc3ccccc32)cc1)N1CC=CC1.O=C(O)C(F)(F)F [Compd. of Ex. 107, 4-(4-chlorobenzoyl)-1-[4-(2,5-dihydro-1H-pyrrol-1-yl(imino)methyl)benzyl]-1,3,4,5-tetrahydrobenzo[e][1,4]-diazepin-2-on trifluoroacetate]",–,5.5,–,50.1,> 100000
"CC(C)N1CCN(C(=O)CCc2ccc3c(c2)N(Cc2ccc(C(=O)N4CC=CC4)cc2)C(=O)CN(C(=O)c2ccc(Cl)cc2)C3)CC1.O=C(O)C(F)(F)F [Compd. of Ex. 115, 4-(4-chlorobenzoyl)-1-[4-(2,5-dihydro-1H-pyrrol-1-ylcarbonyl)benzyl]-8-[3-(4-isopropyl-1-piperazinyl)-3-oxo-propyl]-1,3,4,5-tetrahydrobenzo[e][1,4]diazepin-2-on trifluoroacetate]",–,5.4,–,63.1,39800
